Laboratory results as given in patent US11873298B2, “Compounds and uses thereof” (JANSSEN PHARMACEUTICA NV, priority 2017, dated 2024).

Assays:
SCD1 = target: T1, SCD1 (Homo sapiens, UniProt O00767); experiment: Growth inhibition of humanized yeast strain expressing SCD1 as sole desaturase; type: cell-based; settings: growth inhibition of humanized yeast strain expressing human SCD1
T1 construct: host or cells: S. cerevisiae ole1Δ strain (W303 pdr1Δ pdr3Δ background), plasmid pRS316 with TDH3 promoter and CYC1 terminator
T1 sequence (O00767 1-359): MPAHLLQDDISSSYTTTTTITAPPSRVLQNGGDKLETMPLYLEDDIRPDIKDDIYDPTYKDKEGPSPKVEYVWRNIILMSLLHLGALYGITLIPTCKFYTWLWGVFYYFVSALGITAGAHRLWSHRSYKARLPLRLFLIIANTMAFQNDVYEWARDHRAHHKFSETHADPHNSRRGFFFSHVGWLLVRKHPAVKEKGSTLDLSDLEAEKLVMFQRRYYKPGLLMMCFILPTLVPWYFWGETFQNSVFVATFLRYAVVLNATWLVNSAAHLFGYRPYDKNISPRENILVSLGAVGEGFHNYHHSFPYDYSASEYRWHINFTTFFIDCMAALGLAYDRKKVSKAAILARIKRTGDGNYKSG
Method: Strain oleΔ (yeast ole1 deletion mutant) was constructed by deleting OLE1 with NAT-MX6 in BY4741, amplifying the deletion cassette from the genomic DNA of the resulting strain with primers flanking the ORF by 1000 bp upstream and downstream, transforming the resulting deletion cassette into W303 pdr1Δ pdr3Δ, and plating transformants on YPD media containing G418 (200 μg/mL) and nourseothricin ([…]) with 0.01% TWEEN®-20 and 0.5 mM oleic and palmitoleic acids.
The coding sequence of yeast OLE1 was also cloned into this plasmid). These clones were then transformed into the ole1Δ strain and plated on CSM-Ura media (CSM lacking uracil) with 2% glucose (w/v) and independent colonies were isolated and amplified.
All compound profiling experiments were performed using the same basic protocol. Different genetic backgrounds (e.g., gene deletions) or conditions (e.g., addition of oleic and palmitoleic acid) were replaced as indicated below.
Yeast were cultured using standard techniques in complete synthetic media (CSM) and yeast nitrogen base supplemented with 2% (w/v) carbon source (glucose, raffinose, or galactose) to regulate the expression of the toxic disease protein. An initial starter culture was inoculated in 3 mL CSM-Glucose media and incubated overnight in a 30° C. shaker incubator (225 rpm). Saturated morning cultures were then diluted 1:20 in fresh CSM-Raffinose media and grown for 6 h to an OD600 (optical density) of ˜0.4-0.8 at 30° C. with shaking.
Compound administration was performed in two separate steps. First, 15 μL of CSM-Galactose (induces expression of toxic protein) was dispensed into clear 384 well assay plates using a MULTIDROP™ Combi reagent dispenser. […] The cultures described above were then diluted to a 2× concentration (0.03 and 0.08 for alpha-synuclein and ApoE, final ODsoo of 0.015 and 0.04) in CSM-Galactose. For wild-type and Ole1/SCD1/SCD5 plasmid-containing strains, the 2× cell density was 0.02. […] For 96-well assays (FIGS. 1A and 1B), compound dilutions in DMSO were generated in 96 well plates and 1 μL was manually pipetted into 96 well clear bottom assay plates.
For experiments using a plasmid-borne copy of Ole1, SCD1, or SCD5 (FIGS. 3B, 6, and 7), media lacking uracil (SX-Ura, where X is glucose, raffinose, or galactose), was used for all steps of the compound profiling protocol to ensure its maintenance throughout the assay.
After yeast delivery, assay plates were incubated under humidified conditions at 30° C. for 24 to 40 h. ApoE4 rescue experiments were stopped at 24 h, aSyn experiments at 40 h, Ole1 at 24 h, and SCD1/SCD5 at 40 h. The growth of yeast was monitored by reading the ODsoo of each well using a microplate reader (Perkin Elmer EnVision™).

SCD5 = target: T2, SCD5 (Homo sapiens, UniProt Q86SK9); experiment: Growth inhibition of humanized yeast strain expressing SCD5 as sole desaturase; type: cell-based; settings: growth inhibition of humanized yeast strain expressing human SCD5
T2 construct: host or cells: S. cerevisiae ole1Δ strain (W303 pdr1Δ pdr3Δ background), plasmid pRS316 with TDH3 promoter and CYC1 terminator
T2 sequence (Q86SK9 1-330): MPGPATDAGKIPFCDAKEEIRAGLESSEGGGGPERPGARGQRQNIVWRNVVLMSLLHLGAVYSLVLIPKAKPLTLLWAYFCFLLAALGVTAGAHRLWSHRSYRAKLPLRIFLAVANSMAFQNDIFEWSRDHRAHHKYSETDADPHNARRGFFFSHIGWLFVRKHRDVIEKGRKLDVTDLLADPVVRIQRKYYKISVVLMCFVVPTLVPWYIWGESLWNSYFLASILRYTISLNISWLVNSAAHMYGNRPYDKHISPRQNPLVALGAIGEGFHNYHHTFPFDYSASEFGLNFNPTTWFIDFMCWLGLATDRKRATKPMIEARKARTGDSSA
How it was run: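 ole1Δ yeast (W303 pdr1Δ pdr3Δ background) carrying plasmid-borne Ole1, SCD1 or SCD5, grown in uracil-free media; cultures pre-grown in raffinose, seeded at 2× density 0.02 in galactose media with compound. Growth read as OD600 after 24 h at 30° C. for Ole1, 40 h for SCD1/SCD5.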

Row | Structure (SMILES) | IC50 (SCD1) [µM] | IC50 (SCD5) [µM]
1 | CNC(=O)OC1CCC(c2nc(-c3ccc4cnn(C(C)C)c4c3)no2)CC1 (stereo not drawn) [Compound 608] | > 45 | > 45
2 | CNC(=O)O[C@H]1CC[C@H](c2nc(-c3ccc4c(C)nn(C)c4c3)no2)CC1 [Compound 609] | > 45 | > 45
3 | CC(C)N1C(=O)Cc2ccc(-c3noc(C4CCN(C(=O)OC5(C)CC5)CC4)n3)cc21 [Compound 610] | > 45 | 2.16
4 | CC(C)N1C(=O)Cc2ccc(-c3noc(C4CCN(C(=O)CC(C)(C)C)CC4)n3)cc21 [Compound 611] | > 45 | 7.48
5 | CC(C)N1C(=O)Cc2ccc(-c3noc(C4CCN(C(=O)c5ccccc5Cl)CC4)n3)cc21 [Compound 612] | > 45 | 2.38
6 | Cc1nn(C)c2cc(-c3noc(N4CCN(C(=O)OC5(C)CC5)CC4)n3)ccc12 [Compound 613] | > 45 | > 45
7 | CCOCC1CCN(c2nc(-c3ccc4cnn(C(C)C)c4c3)no2)CC1 [Compound 614] | > 45 | 13.9
8 | CC(C)n1ncc2ccc(-c3noc(C4CCN(Cc5ncco5)CC4)n3)cc21 [Compound 615] | 0.848 | 1.88
9 | CC(C)n1ncc2ccc(-c3noc(C4CCN(C(=O)C5CC(=O)N(C)C5(C)C)CC4)n3)cc21 (stereo not drawn) [Compound 616] | > 45 | > 45
10 | CC(C)(C)CC(=O)N1CCC(c2nc(-c3ccc4cnn(C5COC5)c4c3)no2)CC1 [Compound 617] | > 45 | 0.121
11 | O=C(OC1CC1)N1CCC(c2nc(-c3ccc4cnn(C5COC5)c4c3)no2)CC1 [Compound 618] | > 45 | 0.101
12 | CC(C)(C)CC(=O)N1CCN(c2nc(-c3ccc4cnn(C5COC5)c4c3)no2)CC1 [Compound 619] | > 45 | 0.291
13 | CC1(OC(=O)N2CCN(c3nc(-c4ccc5cnn(C6COC6)c5c4)no3)CC2)CC1 [Compound 620] | > 45 | 0.013
14 | CC(C)(C)OC(=O)N1CCC(c2nc(-c3ccc4cnn(C5COC5)c4c3)ns2)CC1 [Compound 621] | > 45 | 0.042
15 | COC(=O)N1CCC(F)(c2nc(-c3ccc4cnn(C(C)C)c4c3)no2)CC1 [Compound 622] | > 45 | 1.61
16 | CC(C)n1ncc2ccc(-c3noc(C4(F)CCN(C(=O)CC5(C)CC5)CC4)n3)cc21 [Compound 623] | > 45 | 0.854
17 | CC(C)n1ncc2ccc(-c3noc(C4(F)CCN(C(=O)OC5CC5)CC4)n3)cc21 [Compound 624] | > 45 | 0.222
18 | CC(C)n1ncc2ccc(-c3noc(C4(F)CCN(C(=O)OC5(C)CC5)CC4)n3)cc21 [Compound 625] | > 45 | 0.122
19 | CC(C)N1C(=O)Cc2ccc(-c3noc(C4CCN(C(=O)CC5(C)CC5)CC4)n3)cc21 [Compound 626] | > 45 | 2.75
20 | COC(=O)N1CCC(c2nc(-c3ccc4c(c3)N(C(C)C)C(=O)C4)no2)CC1 [Compound 627] | > 45 | 6.69
21 | CC(C)n1ncc2ccc(-c3nc(C4CCN(C(=O)OC5(C)CC5)CC4)no3)cc21 [Compound 628] | > 45 | 0.01
22 | COC(=O)N1CCC(c2noc(-c3ccc4cnn(C(C)C)c4c3)n2)CC1 [Compound 629] | > 45 | 0.03
23 | COC(=O)N1CCN(c2noc(-c3ccc4cnn(C(C)C)c4c3)n2)CC1 [Compound 630] | 10.2 | 0.014

Row | Structure (SMILES) | IC50 (SCD1) [µM] | IC50 (SCD5) [µM]
24 | Cc1nn(C)c2cc(-c3noc(C4CCN(C(=O)[C@H]5CC(=O)N(c6cccc(C#N)c6)C5)CC4(F)F)n3)ccc12 (stereo partly drawn) [Compound 631] | > 45 | > 45
25 | CC(C)n1ncc2ccc(N3CC4(CCN(C(=O)CC(C)(C)C)CC4)C3)cc21 [Compound 632] | > 45 | > 45
26 | CC(C)(C)OC(=O)N1CC=C(c2nc(-c3ccc4cnn(C5COC5)c4c3)ns2)CC1 [Compound 633] | > 45 | 0.214
27 | CC(C)n1ncc2ccc(-c3noc([C@H]4CC[C@H](O)CC4)n3)cc21 [Compound 634] | > 45 | ≥ 45
28 | COC(=O)N1CCC(c2nc(-c3ccc4cnn(C5COC5)c4c3)no2)CC1 [Compound 635] | > 45 | 0.397
29 | COC(=O)N1CCN(c2nc(-c3ccc4cnn(C5COC5)c4c3)no2)CC1 [Compound 636] | > 45 | 1.8
30 | CC(C)n1ncc2ccc(-c3noc(N4CCC(CO)CC4)n3)cc21 [Compound 637] | > 45 | > 45
31 | CC(=O)N1CC(CC(=O)N2CCC(c3nc(-c4ccc5c(C)nn(C)c5c4)no3)CC2)C1 [Compound 638] | > 45 | > 45
32 | CC(C)c1noc2ccc(-c3noc(C4CCN(C(=O)OC(C)(C)C)CC4)n3)cc12 [Compound 639] | > 45 | 4.79
33 | CC(C1CC1)n1ncc2ccc(-c3noc(C4CCN(C(=O)OC(C)(C)C)CC4)n3)cc21 (stereo not drawn) [Compound 640] | > 45 | 3.98
34 | CC(CCO)n1ncc2ccc(-c3noc(C4CCN(C(=O)OC(C)(C)C)CC4)n3)cc21 (stereo not drawn) [Compound 641] | > 45 | 6.72
35 | O=C(OC1CC1)N1CCN(c2nc(-c3ccc4cnn(C5COC5)c4c3)no2)CC1 [Compound 642] | > 45 | 0.211
36 | CC(C)(C)OC(=O)N1CCC(c2noc(-c3ccc4cnn(C5COC5)c4c3)n2)CC1 [Compound 643] | > 45 | 0.01
37 | CNC(=O)Cn1ncc2ccc(-c3noc(C4CCN(C(=O)OC(C)(C)C)CC4)n3)cc21 [Compound 644] | > 45 | > 45
38 | CC(C)(C)OC(=O)N1CCC(c2nc(-c3ccc4cnn(CC5CCNC5=O)c4c3)no2)CC1 (stereo not drawn) [Compound 645] | 17.9 | 4.47
39 | COC(=O)N1CCC(c2nc(-c3ccc4onc(C(C)C)c4c3)no2)CC1 [Compound 646] | > 45 | 1.18
40 | CNC(=O)O[C@H]1CC[C@@H](c2nc(-c3ccc4cnn(C(C)C)c4c3)no2)CC1 [Compound 647] | > 45 | 9.37
41 | Cc1nn(C)c2cc(-c3noc(C4CCN(C(=O)[C@@H]5CC(=O)N(c6cccc(C#N)c6)C5)CC4(F)F)n3)ccc12 (stereo partly drawn) [Compound 648] | > 45 | > 45
42 | CC(C)(C)OC(=O)N1CCC(c2nc(-c3ccc4oc(=O)n(C5COC5)c4c3)no2)CC1 [Compound 649] | > 45 | 0.259
43 | CC(C)(C)OC(=O)N1CCC(c2nc(-c3ccc4cnn(C5CCOC5)c4c3)no2)CC1 (stereo not drawn) [Compound 650] | 4.36 | 0.013
44 | CCOC(=O)CC(C)n1ncc2ccc(-c3noc(C4CCN(C(=O)OC(C)(C)C)CC4)n3)cc21 (stereo not drawn) [Compound 651] | > 45 | 18.4
45 | CC(C)(C)OC(=O)N1CCC(c2nc(-c3ccc4cnn(C5CN(C(=O)OC(C)(C)C)C5)c4c3)no2)CC1 [Compound 652] | > 45 | > 45
